Assay results: patent publication US20240385198A1, “STING MODULATOR COMPOSITIONS AND METHODS OF USE AND DETECTION THEREOF” (University of South Florida, priority 2023, published 2024)
Read-outs that look alike come from different tables or passages of the source.

What was measured:
His-labeled STING = His-labeled STING (Homo sapiens, UniProt Q86WV6, H232R); assay: Microscale thermophoresis (MST) analysis of STING modulators with 50 nM 2,3-cGAMP (Example 2); type: binding; conditions: compounds incubated with 50 nM 2,3-cGAMP
Procedure: Nanotemper Monolith NT.115 labeled thermophoresis machine (NanoTemper Technologies GmbH, München, Germany) was used with standard treated capillary tubes using samples comprised of labeled protein and titrations of small molecule in 1×PBS. […] Detection of the protein was performed using the blue detection channel with LED excitation power set to 90% and MST set to high allowing 3 s prior to MST on to check for initial fluorescence differences, 25 s for thermophoresis, and 3 s for regeneration after MST off.
[…] Analysis was performed using M.O. Affinity Analysis Software with difference between initial fluorescence measured in the first 5 s as compared with thermophoresis at 15 s at 15 different analyte concentrations ranging from 100 zM to […] and exported into Graphpad Prism v.8 using a Log inhibitor v. response 4 parameter fit.
Microscale Thermophoresis (MST) was performed on compounds incubating with 50 nM 2,3-cGAMP. Confidence is categorized as follows: 1=low confidence (<2 MST shift unit-non-statistical); 2=mid confidence (2-3 MST shift units-intermediate); 3=high confidence ([…]-statistical). Dissociation constants are categorized as follows: A<1 pM; 1 pM≤B<100 pM; 100 pM≤C<10 μM; 10 μM≤D<100 μM.

[1] = system: STING R232 variant (human recombinant); assay: MST competition assay of STING oligomerization with 2′,3′-cGAMP (Example 1); type: binding; conditions: 100 nM STING, 50 nM 2′,3′-cGAMP; for EC50 interactions (high, mid, low affinity) from MST dose-response: 1:10 series dilution 100 mM to 100 zM, FIGS. 3A, 3B, 4; for Interaction with STING as a function of incubation time (dose-response curves): 15 min, 30 min, 45 min incubation, FIGS. 2A-2C
From the text: Temperature Related Intensity Change (TRIC) is a biophysical technique that measures the strength of the interaction between two molecules by detecting a variation in the fluorescence signal of a fluorescently labeled or intrinsically fluorescent target as a result of an IR-laser induced temperature change. The extent of the temperature dependence is strongly related to the chemical environment of the fluorophore, which can be changed by the binding of a ligand to the target. Binding events below the picomolar level are difficult to detect because below this level, the ratio between target protein and analyte is too large for the detector to accurately measure movement. Herein describes a competition assay involving STING along with 2′,3′-cGAMP to detect analyte interaction with STING at sub-picomolar levels by measuring changes to oligomerization of STING.
The NanoTemper Pico instrument produces data in three separate phases: fluorescent count; normalized MST time-trace; and the change in normalized fluorescence (ΔFnorm) result. The fluorescent count is done to ensure that there is no difference between overall fluorescence between fractions, that there is enough fluorescent signal present for the detector to accurately give a reading, but not too much as to negatively affect migration during thermophoresis. It also gives indication if there is aggregation or adsorption within samples. The normalized MST time-trace gives an indication of the movement of molecules by thermophoresis within the detector sight picture over a period of time (T−Jump). The final graph is a ΔFnorm readout which is mathematically determined using the formula:
ΔFnorm=Fhot/Fcold • whereas Fhot equals an area designated by the analyst, located within the T−Jump area and Fcold equals the area within the initial fluorescence area just before the infrared (IR) laser heats the capillary tube.
STING R232 variant (human recombinant) protein was solubilized at 200 nM in HBS-P (0.01M HEPES pH 7.4, 0.15 NaCl, 0.005% v/v surfactant P20) along with 100 nM 2′,3′-cGAMP. 100 nM of NTAAtto 488 dye (blue; nitrilotriacetic acid complexed to Ni^2+) was added and incubated for 1 hour at room temperature covered from light. The resulting mixture was centrifuged at 12,000×RPM for 10 minutes prior to use. A 1:10 series dilution from 200 mM to 200 zM was created using HBS-P with 1% DMSO. The dyed STING/2′,3′-cGAMP mixture was added to each sample in a 1:1 ratio, resulting in a static 100 nM STING, 50 nM 2′,3′-cGAMP, and a concentration range from 100 mM to 100zM. Samples were incubated for 15-minutes prior to load into Monolith NT.115 capillaries and ran on dianthus NT.23 NanoTemper Pico instrument (NanoTemper Technologies GmbH, München, Germany). Samples were run again at 30- and 45-minutes.

[2] = read-out: Dissociation Constant
[3] = first of two binding events, read-out: Dissociation Constant Kd1
[4] = second of two binding events, read-out: Dissociation Constant Kd2

Chain of His-labeled STING (Q86WV6 138-379 H232R): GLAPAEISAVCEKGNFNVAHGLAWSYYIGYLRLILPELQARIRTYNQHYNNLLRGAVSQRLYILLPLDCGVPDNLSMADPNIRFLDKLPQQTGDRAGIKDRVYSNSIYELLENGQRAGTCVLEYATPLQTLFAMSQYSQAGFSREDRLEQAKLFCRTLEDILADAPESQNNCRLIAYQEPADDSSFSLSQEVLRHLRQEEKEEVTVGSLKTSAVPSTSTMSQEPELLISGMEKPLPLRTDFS

Row | Kd (His-labeled STING; [2]) | SMILES | Confidence (MST shift units) (His-labeled STING) | further results
1 | 0.001 to 0.1 nM | Cc1c(Cl)cccc1Nc1ncccc1COCC(O)CO (stereo not drawn) [Compound 1] | 1 (1=low confidence (<2 MST shift unit-non-statistical)) | –
2 | < 0.001 nM | Cc1c(Cl)cccc1Nc1ncccc1CO [Compound 4] | 2 (2=mid confidence (2-3 MST shift units-intermediate)) | –
3 | – | COC(=O)c1cccnc1Nc1cccc(Cl)c1C [Compound 9] | 3 (3=high confidence (>2 MST shift units-statistical)) | Kd (His-labeled STING; [3]): 0.1 to 10000 nM; Kd (His-labeled STING; [4]): < 0.001 nM
4 | – | CCOC(=O)c1cccnc1Nc1cccc(Cl)c1C [Compound 10] | 1 (1=low confidence (<2 MST shift unit-non-statistical)) | Dissociation Constant (His-labeled STING): Low R2
5 | – | CCCOC(=O)c1cccnc1Nc1cccc(Cl)c1C [Compound 11] | 1 (1=low confidence (<2 MST shift unit-non-statistical)) | Kd (His-labeled STING; [3]): 0.1 to 10000 nM; Kd (His-labeled STING; [4]): < 0.001 nM
6 | 10000 to 100000 nM | C#CCOC(=O)c1cccnc1Nc1cccc(Cl)c1C [Compound 13] | 2 (2=mid confidence (2-3 MST shift units-intermediate)) | –
7 | 0.1 to 10000 nM | CNC(=O)c1cccnc1Nc1cccc(Cl)c1C [Compound 14] | 2 (2=mid confidence (2-3 MST shift units-intermediate)) | –
8 | 0.1 to 10000 nM | CCNC(=O)c1cccnc1Nc1cccc(Cl)c1C [Compound 15] | 1 (1=low confidence (<2 MST shift unit-non-statistical)) | –
9 | 0.1 to 10000 nM | CCCNC(=O)c1cccnc1Nc1cccc(Cl)c1C [Compound 16] | 2 (2=mid confidence (2-3 MST shift units-intermediate)) | –
10 | 0.1 to 10000 nM | C=CCNC(=O)c1cccnc1Nc1cccc(Cl)c1C [Compound 17] | 1 (1=low confidence (<2 MST shift unit-non-statistical)) | –
11 | < 0.001 nM | Cc1c(Cl)cccc1Nc1ncccc1C(=O)OCC(O)CO (stereo not drawn) [Compound 19] | 1 (1=low confidence (<2 MST shift unit-non-statistical)) | –
12 | 0.1 to 10000 nM | CCCCC(=O)c1cccnc1Nc1cccc(Cl)c1C [Compound 21] | 2 (2=mid confidence (2-3 MST shift units-intermediate)) | –
13 | 10000 to 100000 nM | Cc1c(Br)cccc1Nc1ncccc1C(=O)O [Compound 23] | 3 (3=high confidence (>2 MST shift units-statistical)) | –
14 | 0.001 to 0.1 nM | COC(=O)c1cccnc1Nc1cccc(Br)c1C [Compound 24] | 1 (1=low confidence (<2 MST shift unit-non-statistical)) | –
15 | < 0.001 nM | Cc1c(Br)cccc1Nc1ncccc1C(=O)OCC(O)CO (stereo not drawn) [Compound 26] | – | –
16 | 0.1 to 10000 nM | Cc1c(Nc2ncccc2C(=O)O)cccc1C(F)(F)F [Compound 27] | 3 (3=high confidence (>2 MST shift units-statistical)) | –
17 | < 0.001 nM | Cc1c(Nc2ncccc2C(=O)OCC(O)CO)cccc1C(F)(F)F (stereo not drawn) [Compound 29] | – | –
18 | 0.001 to 0.1 nM | COC(=O)c1cccnc1Nc1cccc(C(F)(F)F)c1C [Compound 30] | – | –

Row | Kd (His-labeled STING; [2]) | SMILES | Confidence (MST shift units) (His-labeled STING) | further results
19 | – | Cc1c(Cl)cccc1Nc1ccccc1C(=O)O [Compound 36] | 1 (1=low confidence (<2 MST shift unit-non-statistical)) | Dissociation Constant (His-labeled STING): No Binding
20 | – | Cc1c(Cl)cccc1Nc1ccccc1C(=O)OCC(O)CO (stereo not drawn) [Compound 38] | 1 (1=low confidence (<2 MST shift unit-non-statistical)) | Kd (His-labeled STING; [3]): 0.1 to 10000 nM; Kd (His-labeled STING; [4]): < 0.001 nM
21 | – | Cc1c(Cl)cccc1Nc1ncccc1CN [Compound 40] | – | Kd (His-labeled STING; [3]): 0.1 to 10000 nM; Kd (His-labeled STING; [4]): < 0.001 nM
22 | 0.1 to 10000 nM | Cc1c(Cl)cccc1Nc1ncccc1C(=O)OCCCOC(=O)c1cccnc1Nc1cccc(Cl)c1C [Compound 41] | 1 (1=low confidence (<2 MST shift unit-non-statistical)) | –
23 | – | CCC(COC(=O)c1cccnc1Nc1cccc(Br)c1C)OC (stereo not drawn) [Compound 42] | 2 (2=mid confidence (2-3 MST shift units-intermediate)) | –
24 | – | CCC(COC(=O)c1cccnc1Nc1cccc(C)c1C)OC (stereo not drawn) [Compound 43] | 1 (1=low confidence (<2 MST shift unit-non-statistical)) | –
25 | 0.001 to 0.1 nM | COC(=O)c1cccnc1Nc1cccc(F)c1C [Compound 44] | 1 (1=low confidence (<2 MST shift unit-non-statistical)) | –
26 | – | Cc1cccc(Nc2ccccc2C(=O)O)c1C [Compound 45] | 1 (1=low confidence (<2 MST shift unit-non-statistical)) | Dissociation Constant (His-labeled STING): No Binding
27 | – | CCC(COC(=O)c1ccccc1Nc1cccc(C)c1C)OC (stereo not drawn) [Compound 46] | 1 (1=low confidence (<2 MST shift unit-non-statistical)) | –
28 | – | Cc1cccc(Nc2ncccc2C(=O)O)c1C [Compound 47] | 1 (1=low confidence (<2 MST shift unit-non-statistical)) | Dissociation Constant (His-labeled STING): No Binding
29 | – | Cc1cccc(Nc2ncccc2C(=O)OCC(O)CO)c1C (stereo not drawn) [Compound 48] | 1 (1=low confidence (<2 MST shift unit-non-statistical)) | Dissociation Constant (His-labeled STING): No Binding
30 | 0.001 to 0.1 nM | Cc1c(Cl)cccc1Nc1ncccc1C(=O)OCCCCOC(=O)c1cccnc1Nc1cccc(Cl)c1C [Compound 49] | 1 (1=low confidence (<2 MST shift unit-non-statistical)) | –
31 | 0.1 to 10000 nM | Cc1c(Cl)cccc1Nc1ncccc1C(=O)OCCCCCOC(=O)c1cccnc1Nc1cccc(Cl)c1C [Compound 50] | 3 (3=high confidence (>2 MST shift units-statistical)) | –
32 | – | NC(=O)NC1NC(=O)NC1=O (stereo not drawn) [Compound 52] | 3 (3=high confidence (>2 MST shift units-statistical)) | Kd (His-labeled STING; [3]): 0.1 to 10000 nM; Kd (His-labeled STING; [4]): < 0.001 nM
33 | – | COC(=O)c1cccnc1Nc1cccc(Cl)c1C [Formula (I)] | – | EC50 interactions (high, mid, low affinity) from MST dose-response [1]: several nonlinear regression curves
34 | – | C#CCOC(=O)c1cccnc1Nc1cccc(Cl)c1C [Formula (II)] | – | EC50 interactions (high, mid, low affinity) from MST dose-response [1]: only a low affinity EC50
35 | – | CNC(=O)c1cccnc1Nc1cccc(Cl)c1C [Formula (III)] | – | Interaction with STING as a function of incubation time (dose-response curves) [1]: relatively slow interaction
36 | – | CNCc1cccnc1Nc1cccc(Cl)c1C [Formula (IV)] | – | Interaction with STING as a function of incubation time (dose-response curves) [1]: relatively rapid interaction with STING that was not maintained
